Data from PMC4655258 (Enzyme Research, 2015).
Like-named read-outs stand apart in the source and are kept apart here.

Tests used:
CYP2A6 = molecular target: T1, CYP2A6 (Homo sapiens, UniProt P11509); assay: Fluorometric HTS enzyme assay, recombinant CYP2A6 (coumarin substrate); assay type: biochemical; conditions: ±SEM, 3 replicate assays; 3 μM coumarin
T1 construct: purchased BD Bioscience (Woburn, MA); host or cells: baculovirus-infected insect cells (microsomes, supersomes)
T1 sequence (P11509 1-494): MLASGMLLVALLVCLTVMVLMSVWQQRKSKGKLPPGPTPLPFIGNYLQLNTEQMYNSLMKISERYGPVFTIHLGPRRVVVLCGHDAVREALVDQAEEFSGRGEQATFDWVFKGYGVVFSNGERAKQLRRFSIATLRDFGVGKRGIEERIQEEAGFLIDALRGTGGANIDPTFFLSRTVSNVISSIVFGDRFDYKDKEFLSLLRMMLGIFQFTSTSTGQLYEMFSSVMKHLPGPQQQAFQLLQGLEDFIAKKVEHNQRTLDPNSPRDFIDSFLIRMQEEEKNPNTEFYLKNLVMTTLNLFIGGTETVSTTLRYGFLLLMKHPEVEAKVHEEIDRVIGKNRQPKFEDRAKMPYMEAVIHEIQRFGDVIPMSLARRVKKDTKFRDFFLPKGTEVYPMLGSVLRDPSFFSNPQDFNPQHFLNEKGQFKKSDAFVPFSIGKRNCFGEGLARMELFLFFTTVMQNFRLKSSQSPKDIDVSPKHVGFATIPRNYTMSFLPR
Protocol: (§1) IC50 determinations for human CYPs were similar to HTS methods described by Crespi et al.. Unless otherwise stated, the incubations were carried out in a total volume of 200 μL of 50 mM potassium phosphate buffer (pH 7.4) with 1% acetonitrile. The reaction mixtures contained NADPH-regenerating system in potassium phosphate buffer (pH 7.4) and varying amounts of inhibitor (dissolved in 100% acetonitrile) were preincubated at 37°C for 10 minutes (except CYP2A6 which was in 100 mM Tris buffer pH 7.4). The reactions were initiated by the addition of enzyme/substrate mixture (see Table 1), followed by incubation at 37°C for 30 minutes. The fluorescent signal was measured using a SpectraMax GEMINI XPS (Molecular Devices) with excitation and emission wavelengths listed in Table 1. The data were fit to sigmoidal dose-response curves with nonlinear regression and IC50 values calculated using GraphPad Prism 5.

CYP1B1 = test system: CYP1B1; parameters: method as in PMID 18256205; conditions: cited from earlier work
[1] = cited from earlier work
CYP1A1 = molecular target: T2, CYP1A1 (Homo sapiens, UniProt P04798); assay: Fluorometric HTS enzyme assay, recombinant CYP1A1 (CEC substrate); assay type: biochemical; conditions: ±SEM, 3 replicate assays; 5 μM CEC
T2 construct: purchased BD Bioscience (Woburn, MA); host or cells: baculovirus-infected insect cells (microsomes, supersomes)
T2 sequence (P04798 1-512): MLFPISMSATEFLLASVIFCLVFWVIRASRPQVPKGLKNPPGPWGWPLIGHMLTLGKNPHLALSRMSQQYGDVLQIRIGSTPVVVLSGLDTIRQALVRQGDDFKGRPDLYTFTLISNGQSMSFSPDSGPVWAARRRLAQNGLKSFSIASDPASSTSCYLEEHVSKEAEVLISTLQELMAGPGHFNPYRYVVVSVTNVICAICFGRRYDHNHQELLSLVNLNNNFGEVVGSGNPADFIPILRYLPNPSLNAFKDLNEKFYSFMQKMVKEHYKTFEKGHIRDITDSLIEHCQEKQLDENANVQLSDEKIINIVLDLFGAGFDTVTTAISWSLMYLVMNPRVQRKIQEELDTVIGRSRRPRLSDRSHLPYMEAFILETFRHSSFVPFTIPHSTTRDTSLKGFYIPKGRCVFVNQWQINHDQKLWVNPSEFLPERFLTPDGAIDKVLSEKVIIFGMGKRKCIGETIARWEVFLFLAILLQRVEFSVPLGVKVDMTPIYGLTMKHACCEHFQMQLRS
Protocol: as §1

CYP3A4 = molecular target: T3, CYP3A4 (Homo sapiens, UniProt P08684); assay: Fluorometric HTS enzyme assay, recombinant CYP3A4 (BFC substrate); assay type: biochemical; conditions: recombinant CYP3A4, pH 7.4, probe BFC, at 1 mM
T3 construct: purchased BD Bioscience (Woburn, MA); host or cells: baculovirus-infected insect cells (microsomes, supersomes)
T3 sequence (P08684 whole entry): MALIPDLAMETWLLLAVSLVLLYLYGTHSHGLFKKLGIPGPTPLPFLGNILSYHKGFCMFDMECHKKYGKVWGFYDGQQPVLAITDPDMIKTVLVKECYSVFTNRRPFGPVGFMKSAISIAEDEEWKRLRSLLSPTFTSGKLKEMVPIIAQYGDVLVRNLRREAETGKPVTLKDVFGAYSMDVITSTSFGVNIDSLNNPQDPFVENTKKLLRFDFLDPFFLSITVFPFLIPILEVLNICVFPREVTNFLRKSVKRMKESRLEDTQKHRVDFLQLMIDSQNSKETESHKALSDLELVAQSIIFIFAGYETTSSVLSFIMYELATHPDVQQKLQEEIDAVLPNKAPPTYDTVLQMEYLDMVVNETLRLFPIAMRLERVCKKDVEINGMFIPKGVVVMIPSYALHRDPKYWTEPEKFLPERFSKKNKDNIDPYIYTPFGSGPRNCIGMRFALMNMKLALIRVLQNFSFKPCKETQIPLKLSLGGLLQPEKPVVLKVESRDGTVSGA
Protocol: as §1

IC50 (CYP2A6) [µM] | IC50 (CYP1A1) [µM] | inhibition at 30 min, 1 mM (CYP3A4) [%] | Structure (SMILES) | IC50 (CYP1B1; 2-hydroxy estradiol formation, read-out: IC50 on CYP1B1, estradiol 2-hydroxylation) [µM] | IC50 (CYP1B1; 4-hydroxy estradiol formation, read-out: IC50 on CYP1B1, estradiol 4-hydroxylation) [µM] | effect of pretreatment on [11C]-vorozole binding in the liver ([1]; baboon and human liver, pretreatment with letrozole) | effect of pretreatment on liver pharmacokinetics of [11C]-vorozole binding ([1]; pretreatment with ketoconazole)
106 ± 34 | 69.8 ± 5.3 | < 10 | N#Cc1ccc(C(c2ccc(C#N)cc2)n2cncn2)cc1 [Letrozole] | ≥ 100 | ≥ 100 | does not block | –
– | – | – | CC(=O)N1CCN(c2ccc(OCC3COC(Cn4ccnc4)(c4ccc(Cl)cc4Cl)O3)cc2)CC1 (stereo not shown) [ketoconazole] | – | – | – | altered
